{"source": "patent US20160228444A1", "about": "“NUCLEOSIDE ANALOGS AND USES THEREOF” (Ramot at Tel-Aviv University Ltd., priority 2015, published 2016)", "key": {"[1]": {"system": "U251 human glioblastoma xenograft", "assay": "Glioblastoma xenograft model (survival, body weight, tumor volume, tumor weight, Ki-67)", "conditions": "for tumor volume of vehicle-treated group relative to treated group: from day 11, FIG. 3C", "experimental": "Xenograft of glioblastoma: 8- to 10-week-old male Hsd athymic FOXN (Harlan, Jerusalem, Israel) were inoculated sc in the flanks with 5×10^6 U251 cells. Tumor length (L) and width (W) were measured with a caliper twice weekly. Tumor volumes were calculated according to the formula: (L×W2)/2. When the tumor was established (volume of 50-100 mm^3) the mice were randomly divided into six groups treated with: vehicle control (saline); ip Dox 4 mg/kg once weekly; po AN446 25 mg/kg thrice a week; po AN7 50 mg/kg thrice a week; combination of AN446+Dox (4 mg/kg ip Dox once a week and 25 mg/kg po AN446 thrice a week); AN7+Dox (4 mg/kg ip Dox once a week and 50 mg/kg po AN7 thrice weekly). Untreated, non-bearing tumor naive mice were maintained under the same conditions. The experiment was terminated after 25 treatment days, the mice were sacrificed under CO2 and their tumors and hearts were removed, weighed and divided into parts dedicated for immunohistochemistry (IHC) and the rest were frozen (−80° C.) for Western blot and Quantitative PCR (qRT-PCR) analyses.\nInactivation of avidin-biotin nonspecific binding was prevented by a blocking kit, according to the manufacturer's protocol (Vector Laboratories). […] The secondary antibody was biotin conjugated goat anti-rabbit or anti-mouse IgG. Slides were then stained with the ABC peroxidase system, developed with diaminobenzidine (DAB) (Vector Laboratories) and counterstained with hematoxylin (Bio-Optica, Milano, Italy). The slides were examined using an Olympus BX 52 light microscope, and images were taken with an Olympus DP50 digital camera system.\nMice were implanted subcutaneously with U251 cells and when the tumors reached 50-100 mm^3 treatments were initiated. Survival was evaluated by the Kaplan-Meier end-product analysis, where treatment failure (the experimental end points) was a loss of ˜20% body weight, or a tumor volume of >1 cm^3."}, "[2]": {"system": "pH2AX in H9C2 cells", "assay": "Phosphorylated H2AX (Western blot), 24 or 48 hours", "type": "cell-based, rat", "conditions": "FIG. 13B", "procedure": "(§1) The effects of the abovementioned HDAC inhibitors on DNA damage and repair were then assessed by evaluating changes in levels of phosphorylated histone H2AX (pH2AX), a marker of DNA double-strand breaks, and Rad51, a marker of homologous recombination-guided DNA repair of double-strand breaks [Nagathihalli & Nagaraju, Biochim Biophys Acta 2011, 1816:209-218; Rogakou et al., J Biol Chem 1998, 273:5858-5868].\n(§2) U251 and H9C2 cells were treated with the HDAC inhibitors for 24 or 48 hours, and then subjected to Western blot analysis."}, "[3]": {"system": "Rad51 in H9C2 cells", "assay": "Rad51 (Western blot), 24 or 48 hours", "type": "cell-based, rat", "conditions": "FIG. 14B", "procedure": "as §1, §2"}, "[4]": {"system": "TLR4", "assay": "TLR4 expression in LPS-treated THP1 cells (anti-TLR4 antibodies, FACS)", "type": "cell-based", "conditions": "1 μg/ml LPS, AN446 20 or 40 μM, FIG. 7A", "procedure": "(§3) The effect of AN446 on inflammation-associated pathways was evaluated in the monocytic THP1 cell line and in the MDA-MB-231 breast carcinoma cell line. Supernatants of treated THP1 cells were collected and IL-6, IL-10 and TNF-α concentrations were quantified by ELISA (R&D systems). TLR4 expression in THP1 cells was assessed using fluorescent anti-TLR4 antibodies and FACS analysis. In addition, gene expression for MCP-1, TNF-α and TLR4 in MDA-MB-231 was evaluated by qRT-PCT, following treatment with AN446 and/or paclitaxel."}, "[5]": {"system": "Rad51 in U251 cells", "assay": "Rad51 (Western blot), 24 or 48 hours", "type": "cell-based, human", "conditions": "FIG. 14A", "procedure": "as §1, §2"}, "[6]": {"system": "proliferating fibroblasts in cardiac tissue", "assay": "Proliferating fibroblasts in heart sections (Ki67 / vimentin immunostaining)", "type": "in vivo, mice", "conditions": "co-administration with doxorubicin, FIGS. 8B, 8C", "source_text": "In addition, by double-staining heart sections by immunostaining for the fibroblast marker vimentin and the proliferation marker Ki67, it was observed that most of the proliferating (Ki67-positive) cells in hearts of doxorubicin-treated mice were fibroblasts (vimentin-positive)."}, "[7]": {"system": "PBL", "assay": "Median-effect drug interaction, MTT viability, 72 h", "type": "cell-based", "conditions": "Homo sapiens", "procedure": "(§4) Cell viability was determined by an MTT cell viability assay after 48 hours. MyLa cells (10^4 cells/well), Hut78 cells (5×10^3 cells/well) and normal PBLs (10^5 cells/well) were seeded in 96 well-plates. The PBLs were activated with 40 μg/10^6 cells of phytohemagglutinine (PHA) for 24 h before the experiment.\nThe ratios of the drug combination were based on the ratio of their IC50 of each drug alone. Cell viability was determined by MTT assay, as described hereinabove. The drugs were added to the cells and incubated for 72 h."}, "[8]": {"system": "peripheral blood lymphocytes (PBLs) from healthy volunteers", "assay": "MTT cell viability assay, 48 hours", "type": "cell-based", "conditions": "Homo sapiens, Lymphocyte, read-out: IC50 PBL", "procedure": "The MyLa CTLC cell line (originating from an indolent mycosis fungoides patient) and the Hut-78 CTLC cell line (originating from an aggressive Sézary patient) were used to evaluate toxicity towards cancer cells, and peripheral blood lymphocytes (PBLs) from healthy volunteers were used to evaluate toxicity towards noncancerous cells.\nas §4"}, "[9]": {"system": "TNF-α", "assay": "TNF-α gene expression in MDA-MB-231 cells (qRT-PCR)", "type": "cell-based, human", "conditions": "combination with paclitaxel, FIG. 7C", "procedure": "as §3"}, "[10]": {"system": "bFGF", "assay": "bFGF protein and mRNA in tumor and heart of xenograft mice (Western blot, qRT-PCR)", "type": "in vivo", "conditions": "for expression of mouse bFGF protein in the heart: FIG. 4D; for expression of bFGF in tumors / bFGF mRNA in the tumor: tumor; for bFGF mRNA in the tumor: FIG. 6", "procedure": "Tumors and hearts of the mice were rapidly removed, frozen on dry ice and kept at −70° C. Tissue was then homogenized and RNA and proteins extracted using the NucleoSpin® RNA/Protein kit according to the manufacturer's protocol (Macherey-Nagel, GmbH & Co KG).\nTotal RNA ([…]) was primed by oligo dT and reverse-transcribed by Verso cDNA kit according to the manufacturer's protocol (Thermo Scientific). Analyses of qPCR were performed with Kapa Sybr® Fast (Kapa Biosystems) on a Step One Plus thermocycler (Applied Biosystems). The comparative threshold method was used to calculate the relative gene expression. Values were normalized against glyceraldehyde 3-phosphate dehydrogenase (GAPDH). Expression of the GAPDH mRNA in each individual sample was used to normalize the dataset. The sequences of the primers were as follows: […]\nProtein levels in the samples were determined with the BCA protein assay kit (Pierce). The samples were subjected to Western blot analyses. The expression of proteins was visualized using their specified primary antibodies followed by the secondary IgG IRDye® 680DX antibody. Each detected band was quantified using the Odyssey Infrared Imaging System (LI-COR Biosciences) and normalized to the level of actin. The fold increase of a specific protein was determined by the ratio of the band intensity obtained from treated and untreated samples.\nThe pro-angiogenic factors basic fibroblast growth factor (bFGF) and vascular endothelial growth factor (VEGF) are potent angiogenic stimulators. The expression of bFGF in the tumor and in the heart was evaluated by Western blot and qRT-PCR analyses and expression of VEGF by IHC."}, "[11]": {"system": "acetylated H3 histone in H9C2 cardiomyoblasts", "assay": "Histone H3 acetylation (Western blot), 24 hours", "type": "cell-based, rat", "conditions": "FIG. 12", "procedure": "The effects of the abovementioned HDAC inhibitors on histone acetylation were also compared. U251 and H9C2 cells were treated with the HDAC inhibitors for 24 hours (according to procedures described hereinabove with respect to FIGS. 9 and 10), and then subjected to Western blot analysis."}, "[12]": {"system": "HDACs of classes I and II", "assay": "HDAC activity in intact cells (Fluor de Lys kit)", "type": "cell-based, human", "conditions": "both U251 and Daudi cells, 2 h, FIG. 1B", "procedure": "U251 or Daudi cells seeded in 96-well plates (10^4 cells/well, in quadruplicates) in growth medium for 24 h were then treated as indicated for 2 h in the presence of the HDAC substrate (Fluor de Lys™). The reaction was terminated by the addition of the Fluor de Lys™ developer (Biomol Research Labs) and […] trichostatin A (TSA). All of the above reagents were included in a kit for measuring activities of HDACs of classes I and II (AK-503, Biomol Research Labs). The percentage inhibition was calculated from the ratio of the fluorescence (measured at 355 nm excitation and at 460 nm emission) in the drug treated compared with the untreated control culture."}}, "note": "Like-named read-outs stand apart in the source and are kept apart here.", "data": [{"smiles": "CCCC(CCC)C(=O)Nc1nc2c(ncn2COCCOC(=O)C(CCC)CCC)c(=O)[nH]1", "note": "[AN446, N-valproyl-9-(2-valproyloxy)ethoxymethyl-guanine]", "values": [{"measurement": "survival of mice when added to Dox treatment", "setting": "[1]; added to Dox 4 mg/kg ip once a week, day 25, FIG. 3A", "result": 80, "unit": "%"}, {"measurement": "body weight loss when added to Dox treatment", "setting": "[1]; added to Dox 4 mg/kg, FIG. 3B", "result": "significant attenuation of body weight loss"}, {"measurement": "Ki-67 positive (proliferating) cells in tumors", "setting": "[1]; in combination with Dox, FIG. 3F", "result": "reduced the proliferating cells to a level significantly lower than any of the single drug treatments"}, {"measurement": "tumor volume of vehicle-treated group relative to treated group", "setting": "[1]; in combination with Dox", "result": 3, "unit": "fold"}, {"measurement": "Ki-67 positive cells in tumors", "setting": "[1]; single agent vs vehicle, FIGS. 3E, 3F", "result": "considerably more Ki-67 positive cells were detected in tumors of the vehicle-treated mice"}, {"measurement": "tumor volume of vehicle-treated group relative to treated group", "setting": "[1]; single agent", "result": 2, "unit": "fold"}, {"measurement": "survival of mice until end of experiment (day 25)", "setting": "[1]; single agent: AN446 25 mg/kg or AN7 50 mg/kg po thrice weekly, Dox 4 mg/kg ip once a week, FIG. 3A", "result": 100, "unit": "%"}, {"measurement": "pH2AX levels in cardiomyocytes (H9C2)", "setting": "[2]", "result": "did not increase pH2AX levels"}, {"measurement": "expression of Rad51 in cardiomyocytes (H9C2)", "setting": "[3]", "result": "moderately increased expression"}, {"measurement": "LPS-induced expression of TLR4", "setting": "[4]", "result": "suppressed"}, {"measurement": "expression of Rad51 in U251 cancer cells", "setting": "[5]", "result": "reduced expression of Rad51"}, {"measurement": "doxorubicin-induced proliferation of fibroblasts in cardiac tissue", "setting": "[6]", "result": "significantly reduced the doxorubicin-induced proliferation of fibroblasts"}, {"measurement": "IC50", "setting": "[7]; read-out: com IC50, PBL, in combination with Dox", "result": 187, "unit": "µM"}, {"measurement": "IC50", "setting": "[7]; single agent, Table 2", "result": 198, "unit": "µM"}, {"measurement": "IC50", "setting": "[8]", "result": "200 ± 3", "unit": "µM"}, {"measurement": "paclitaxel-induced increase in expression of TNF-α", "setting": "[9]", "result": "significantly attenuated"}, {"measurement": "expression of mouse bFGF protein in the heart", "setting": "[10]; co-treatment with Dox", "result": "significantly increased its expression to a level higher than that observed in naive or vehicle-treated mice"}, {"measurement": "expression of mouse bFGF protein in the heart", "setting": "[10]; single agent", "result": "unchanged"}, {"measurement": "expression of bFGF in tumors", "setting": "[10]; combination with Dox", "result": "further diminished"}, {"measurement": "bFGF mRNA in the tumor", "setting": "[10]; combined treatment with Dox", "result": "suppressed it significantly further"}, {"measurement": "bFGF mRNA in the tumor", "setting": "[10]; single agent", "result": "significantly reduced the bFGF mRNA"}, {"measurement": "expression of bFGF in tumors", "setting": "[10]; single agent, FIGS. 4A, 4B", "result": "decreased significantly"}, {"measurement": "histone acetylation in H9C2 cardiomyocytes", "setting": "[11]", "result": "not in non-cancerous cardiomyocytes"}, {"measurement": "potency as HDAC inhibitor relative to AN7", "setting": "[12]", "result": "2-3 fold"}]}]}
